Experimental data reported in patent US4758555A, “Method for treating convulsions and epilepsy with organic copper compounds” (priority 1986, dated 1988).

Columns and labels:
[1] = Maximal Electroshock Seizure Test; format: in vivo, male Carworth Farms #1 mice or Sprague-Dawley rats
[2] = Subcutaneous Pentylenetetrazol (Metrazol) Seizure Threshold Test; format: in vivo, male Carworth Farms #1 mice or Sprague-Dawley rats; conditions: for Lowest effective dose, Metrazol (Phase I): Table X; for Protection against Metrazol-induced seizures (in words): running text
[3] = Table X, IP, challenge time 30 min
[4] = Table X, IP, challenge time 4 hrs
[5] = Table X, SC, challenge time 30 min
[6] = Table X, SC, challenge time 4 hrs

Cu(II)5-ethyl-5-phenylhydantoin(CH3 OH)
Lowest effective dose, MES (Phase I) [1, 3]: 100 milligrams per kilogram of bod | Lowest effective dose, MES (Phase I) [1, 4]: 100 milligrams per kilogram of bod | Lowest effective dose, MES (Phase I) [1, 5]: 100 milligrams per kilogram of bod | Lowest effective dose, MES (Phase I) [1, 6]: 30 milligrams per kilogram of bod | Lowest effective dose, Metrazol (Phase I) ([2]; IP, challenge time 30 min): 100 milligrams per kilogram of bod | Lowest effective dose, Metrazol (Phase I) ([2]; IP, challenge time 4 hrs): I | Lowest effective dose, Metrazol (Phase I) ([2]; SC, challenge time 30 min): 100 milligrams per kilogram of bod | Lowest effective dose, Metrazol (Phase I) ([2]; SC, challenge time 4 hrs): 300 milligrams per kilogram of bod

CCC1(c2ccccc2)C(=O)[N-]C(=O)NC1=O.CCC1(c2ccccc2)C(=O)[N-]C(=O)NC1=O.CCC1(c2ccccc2)C(=O)[N-]C(=O)NC1=O.CCC1(c2ccccc2)C(=O)[N-]C(=O)NC1=O.O.O.O.O.O.O.O.O.O.O.O.[Cu+2].[Cu+2] [Cu(II)(Phenobarbital)2 (H2 O)5.5]
Lowest effective dose, MES (Phase I) [1, 3]: 30 milligrams per kilogram of bod | Lowest effective dose, MES (Phase I) [1, 4]: 30 milligrams per kilogram of bod | Lowest effective dose, MES (Phase I) [1, 5]: 30 milligrams per kilogram of bod | Lowest effective dose, MES (Phase I) [1, 6]: 30 milligrams per kilogram of bod | Lowest effective dose, Metrazol (Phase I) ([2]; IP, challenge time 30 min): 5 milligrams per kilogram of bod | Lowest effective dose, Metrazol (Phase I) ([2]; IP, challenge time 4 hrs): 5 milligrams per kilogram of bod | Lowest effective dose, Metrazol (Phase I) ([2]; SC, challenge time 30 min): 30 milligrams per kilogram of bod | Lowest effective dose, Metrazol (Phase I) ([2]; SC, challenge time 4 hrs): 30 milligrams per kilogram of bod

CC(=O)Oc1ccccc1C(=O)[O-].CC(=O)Oc1ccccc1C(=O)[O-].CS(C)=O.CS(C)=O.[Cu+2] [Cu(II)(acetylsalicylate)2 (dimethylsulfoxide)2]
Anticonvulsant activity, Maximal Electroshock (Phase I) ([1]; Table I, SC): I

CCC1(CCC(C)C)C(=O)[N-]C(=O)NC1=O.CCC1(CCC(C)C)C(=O)[N-]C(=O)NC1=O.[Cu+2].c1ccncc1.c1ccncc1 [Cu(II)(Amobarbital)2 (pyridine)2]
Lowest effective dose, MES (Phase I) [1, 3]: 300 milligrams per kilogram of bod | Lowest effective dose, MES (Phase I) [1, 4]: 300 milligrams per kilogram of bod | Lowest effective dose, MES (Phase I) [1, 5]: I | Lowest effective dose, MES (Phase I) [1, 6]: 100 milligrams per kilogram of bod | Lowest effective dose, Metrazol (Phase I) ([2]; IP, challenge time 30 min): 100 milligrams per kilogram of bod | Lowest effective dose, Metrazol (Phase I) ([2]; IP, challenge time 4 hrs): 30 milligrams per kilogram of bod | Lowest effective dose, Metrazol (Phase I) ([2]; SC, challenge time 30 min): 600 milligrams per kilogram of bod | Lowest effective dose, Metrazol (Phase I) ([2]; SC, challenge time 4 hrs): 600 milligrams per kilogram of bod

Cu(II) Salicylidene-L-histidinate
Anticonvulsant activity, Maximal Electroshock (Phase I) ([1]; Table IV, IP): I | Anticonvulsant activity, Maximal Electroshock (Phase I) ([1]; Table IV, SC): I | Anticonvulsant activity, Metrazol (Phase I) ([2]; Table IV, IP): I

CCC1(c2ccccc2)C(=O)[N-]C(=O)NC1=O.CCC1(c2ccccc2)C(=O)[N-]C(=O)NC1=O.[Cu+2].c1c[nH]cn1.c1c[nH]cn1 [Cu(II)(Phenobarbital)2 (imidazole)2]
Lowest effective dose, MES (Phase I) [1, 3]: 100 milligrams per kilogram of bod | Lowest effective dose, MES (Phase I) [1, 4]: 100 milligrams per kilogram of bod | Lowest effective dose, MES (Phase I) [1, 5]: I | Lowest effective dose, MES (Phase I) [1, 6]: 100 milligrams per kilogram of bod | Lowest effective dose, Metrazol (Phase I) ([2]; IP, challenge time 30 min): 300 milligrams per kilogram of bod | Lowest effective dose, Metrazol (Phase I) ([2]; IP, challenge time 4 hrs): 30 milligrams per kilogram of bod | Lowest effective dose, Metrazol (Phase I) ([2]; SC, challenge time 30 min): 100 milligrams per kilogram of bod | Lowest effective dose, Metrazol (Phase I) ([2]; SC, challenge time 4 hrs): 100 milligrams per kilogram of bod

CCC1(CCC(C)C)C(=O)[N-]C(=O)NC1=O.CCC1(CCC(C)C)C(=O)[N-]C(=O)NC1=O.[Cu+2].c1c[nH]cn1.c1c[nH]cn1 [Cu(II)(Amobarbital)2 (imidazole)2]
Lowest effective dose, MES (Phase I) [1, 3]: 600 milligrams per kilogram of bod | Lowest effective dose, MES (Phase I) [1, 4]: I | Lowest effective dose, MES (Phase I) [1, 5]: I | Lowest effective dose, MES (Phase I) [1, 6]: I | Lowest effective dose, Metrazol (Phase I) ([2]; IP, challenge time 30 min): 300 milligrams per kilogram of bod | Lowest effective dose, Metrazol (Phase I) ([2]; IP, challenge time 4 hrs): I | Lowest effective dose, Metrazol (Phase I) ([2]; SC, challenge time 30 min): I | Lowest effective dose, Metrazol (Phase I) ([2]; SC, challenge time 4 hrs): 600 milligrams per kilogram of bod

C[C@H](N)C(=O)[O-].C[C@H](N)C(=O)[O-].[Cu+2] [Cu(II)(L-alaninate)2]
Protection against Metrazol-induced seizures (in words) [2]: effective against the Metrazol-induced seizure at all doses studied and at both time intervals, 30 minutes and 4 hours

Cu(II)n (Phenobarbital)n (H2 O)2n (H2 O)3n
Lowest effective dose, MES (Phase I) [1, 5]: 100 milligrams per kilogram of bod | Lowest effective dose, MES (Phase I) [1, 6]: 30 milligrams per kilogram of bod | Lowest effective dose, Metrazol (Phase I) ([2]; SC, challenge time 30 min): 30 milligrams per kilogram of bod | Lowest effective dose, Metrazol (Phase I) ([2]; SC, challenge time 4 hrs): 30 milligrams per kilogram of bod

CCC1(CCC(C)C)C(=O)[N-]C(=O)NC1=O.CCC1(CCC(C)C)C(=O)[N-]C(=O)NC1=O.O.O.[Cu+2] [Cu(II)(Amobarbital)2 (H2 O)2]
Lowest effective dose, MES (Phase I) [1, 3]: 100 milligrams per kilogram of bod | Lowest effective dose, MES (Phase I) [1, 4]: I | Lowest effective dose, MES (Phase I) [1, 5]: 300 milligrams per kilogram of bod | Lowest effective dose, MES (Phase I) [1, 6]: I | Lowest effective dose, Metrazol (Phase I) ([2]; IP, challenge time 30 min): 100 milligrams per kilogram of bod | Lowest effective dose, Metrazol (Phase I) ([2]; IP, challenge time 4 hrs): I | Lowest effective dose, Metrazol (Phase I) ([2]; SC, challenge time 30 min): 100 milligrams per kilogram of bod | Lowest effective dose, Metrazol (Phase I) ([2]; SC, challenge time 4 hrs): I

Cu(II)n (Phenobarbital)n (pyridine)2n (H2 O)3n
Lowest effective dose, Metrazol (Phase I) ([2]; SC, challenge time 30 min): 30 milligrams per kilogram of bod | Lowest effective dose, Metrazol (Phase I) ([2]; SC, challenge time 4 hrs): 30 milligrams per kilogram of bod

N[C@@H](Cc1ccccc1)C(=O)[O-].N[C@@H](Cc1ccccc1)C(=O)[O-].[Cu+2] [Cu(II)(L-phenylalaninate)2]
Protection against Metrazol-induced seizures (in words) [2]: effective against the Metrazol-inducedseizure at all three doses studied but only at the shorter time period

O=C([O-])c1cc(Cl)ccc1O.O=C([O-])c1cc(Cl)ccc1O.[Cu+2] [Cu(II)(5-chlorosalicylate)2]
Anticonvulsant activity, Maximal Electroshock (Phase I) ([1]; Table II, IP): I

C[C@@H](O)[C@H](N)C(=O)[O-].C[C@@H](O)[C@H](N)C(=O)[O-].O.[Cu+2] [Cu(II)(L-threoninate)2 H2 O]
Protection against Metrazol-induced seizures (in words) [2]: effective against the Metrazol-induced seizure at all doses studied and at both time intervals, 30 minutes and 4 hours

NC(=O)N1c2ccccc2C=Cc2ccccc21 [Carbamazepine, reference compound]
ED50 ([1]; Mus musculus, Table X, IP, at time of peak activity, read-out: ED50 for inhibition of seizures, MES (Phase II)): 9 mg/kg

CC(C)[C@H](N)C(=O)[O-].CC(C)[C@H](N)C(=O)[O-].O.[Cu+2] [Cu(II)(L-valinate)2 H2 O]
Protection against Metrazol-induced seizures (in words) [2]: effective against the Metrazol-induced seizure at all doses studied and at both time intervals, 30 minutes and 4 hours

CC(=O)Oc1ccccc1C(=O)[O-].CC(=O)Oc1ccccc1C(=O)[O-].[Cu+2].c1ccncc1.c1ccncc1 [Cu(II)(acetylsalicylate)2 (pyridine)2]
Anticonvulsant activity, Maximal Electroshock (Phase I) ([1]; Table I, SC): I

C[C@@H](O)[C@H](N)C(=O)[O-].N[C@@H](CO)C(=O)[O-].[Cu+2] [Cu(II)(L-threoninate)(L-serinate)]
Protection against Metrazol-induced seizures (in words) [2]: effective against the Metrazol-induced seizure at all doses studied and at both time intervals, 30 minutes and 4 hours

Cu(II)(L-cystinate)2 H2 O
Protection against Metrazol-induced seizures (in words) [2]: effective against the Metrazol-inducedseizure at all three doses studied but only at the shorter time period

C[C@@H](O)[C@H](N)C(=O)[O-].C[C@H](N)C(=O)[O-].[Cu+2] [Cu(II)(L-threoninate)(L-alaninate)]
Protection against Metrazol-induced seizures (in words) [2]: effective against the Metrazol-induced seizure at all doses studied and at both time intervals, 30 minutes and 4 hours
